The results in this text go back to US20240140931A1, “TRICYCLIC COMPOUNDS AND USES THEREOF” (HUTCHMED LIMITED, priority 2021, published 2024).

Experiment [1] has as its target Human full-length SHP2 recombinant protein (Homo sapiens (Human), UniProt Q06124). The experiment is described as follows: Assay of full-length SHP2 phosphatase activity. In kind it is biochemical. To be noted: DiFMUP substrate, with activating peptide. A digest of the protocol: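 Readout: DiFMUP hydrolysis fluorescence (355/460 nm) after 60 min at 25 °C, following 30 min RT preincubation of compound with peptide-activated full-length human SHP2. Controls were 1% DMSO with or without enzyme; IC50 by four-parameter logistic fit.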

Experiment [2] relates to pERK1/2 (Thr202/Tyr204) in Miapaca2 cells. Nature of the experiment: Assay of intracellular pERK1/2 (Thr202/Tyr204) phosphorylation. The class given is cell-based. Conditions: pERK1/2 (Thr202/Tyr204) HTRF. An outline of the steps:
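HTRF read-out (665/615 nm) of phospho-ERK1/2 Thr202/Tyr204 in lysates from Miapaca2 cells exposed for 2 h to 3-fold compound dilutions at 0.5% final DMSO. Controls: lysis buffer without cells and DMSO-treated cells; IC50 from four-parameter logistic fit.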
For orientation: In TR-FRET formats the signal depends on donor and acceptor labels being close together.

The subject of another experiment is Miapaca2 3D spheroids. The experiment is described as follows: Assay of cell proliferation on Miapaca2 3D spheroids. To be noted: CellTiter-Glo 3D, 5 days treatment. In kind it is cell-based. An outline of the steps:
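Miapaca2 spheroids (300 cells/well, formed by day 2) exposed 5 days at 37 °C to compound in 3-fold dilution series, 0.1% DMSO final. Viability by CellTiter-Glo 3D luminescence; survival % relative to day-2 and day-7 DMSO controls, IC50 from four-parameter logistic fit.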
On the technique in general: Cellular ATP, detected with luciferase, serves as a proxy for viable cell number.

Where [3] appears, read: Homo sapiens, MIA PaCa-2, 120 h.

Human full-length SHP2 recombinant protein, sequence (Q06124 whole entry): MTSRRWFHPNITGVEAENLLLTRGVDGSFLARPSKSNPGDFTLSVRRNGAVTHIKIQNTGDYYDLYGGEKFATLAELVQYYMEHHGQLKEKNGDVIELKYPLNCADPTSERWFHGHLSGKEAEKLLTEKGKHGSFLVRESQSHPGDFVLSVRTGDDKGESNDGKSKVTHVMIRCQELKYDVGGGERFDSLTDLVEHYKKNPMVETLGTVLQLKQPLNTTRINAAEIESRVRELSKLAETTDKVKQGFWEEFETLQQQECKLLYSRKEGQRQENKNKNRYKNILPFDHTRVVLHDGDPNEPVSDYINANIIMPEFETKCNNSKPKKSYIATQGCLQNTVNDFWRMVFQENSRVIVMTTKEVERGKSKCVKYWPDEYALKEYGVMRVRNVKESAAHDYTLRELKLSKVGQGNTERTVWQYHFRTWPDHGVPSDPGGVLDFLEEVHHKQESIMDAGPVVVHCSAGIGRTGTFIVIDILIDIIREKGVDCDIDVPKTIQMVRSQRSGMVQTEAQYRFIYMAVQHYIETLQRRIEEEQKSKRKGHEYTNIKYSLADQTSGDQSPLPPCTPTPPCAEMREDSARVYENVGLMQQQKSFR

Usually IC50 stands for the concentration that gives 50% inhibition. For `C#Cc1ccc2c(c1)[C@@H](N)C1(CCN(c3nc(C)n(-c4cccc(Cl)c4Cl)c(=O)c3F)CC1)C2` [Compound 165], the IC50 in experiment [1] was determined as 6 nM; in experiment [2] (Homo sapiens, MIA PaCa-2, 2 h) it was 39 nM; in the experiment with Miapaca2 3D spheroids (setting [3]), 71 nM.

In the case of `CC#Cc1ccc2c(c1)[C@@H](N)C1(CCN(c3cc(=O)n(-c4ccc(F)c(Cl)c4Cl)c(C)n3)CC1)C2` (atropisomer, axis not shown) [Compound 221], the IC50 stood at 1 nM in experiment [1], 15 nM in experiment [2] (2 hours) and 63 nM in the experiment on Miapaca2 3D spheroids (setting [3]).

In the case of `C#Cc1cc(F)c2c(c1)[C@@H](N)C1(CCN(c3nc(C)n(-c4cccc(Cl)c4Cl)c(=O)c3C)CC1)C2` [Compound 168], the IC50 amounted to 10 nM in experiment [1]; 34 nM in experiment [2] (Homo sapiens, MIA PaCa-2, 2 h); 77 nM with Miapaca2 3D spheroids (setting [3]).

In the case of `C#Cc1ccc2c(c1)[C@@H](N)C1(CCN(c3cc(=O)n(-c4ccc(C#N)c(OC)c4Cl)c(C)n3)CC1)C2` (atropisomer, axis not shown) [Compound 191], the IC50 in experiment [1] worked out at 1 nM; in experiment [2] (2 hours), 21 nM; in the experiment on Miapaca2 3D spheroids, 58 nM.

Take `CCNC(=O)C#Cc1ccc2c(c1)[C@@H](N)C1(CCN(c3cnc(Sc4ccnc(N)n4)cn3)CC1)C2` [Compound 260]: the IC50 in experiment [1] was found to be 1 nM; in experiment [2] (Homo sapiens, MIA PaCa-2, 2 h), 5 nM; with Miapaca2 3D spheroids (setting [3]), 2 nM.

On to `C#Cc1ccc2c(c1)[C@@H](N)C1(CCN(c3nc(N)c(Sc4ccnc(N)c4Cl)nc3C)CC1)C2` [Compound 241], for which the IC50 worked out at 1.2 nM in experiment [1]; 10 nM in experiment [2] (Homo sapiens, MIA PaCa-2, 2 h); 3.8 nM in the experiment on Miapaca2 3D spheroids (setting [3]).

Regarding `COCC#Cc1ccc2c(c1)[C@@H](N)C1(CCN(c3ncc(Sc4ccnc(N)c4Cl)c(=O)n3C)CC1)C2` [Compound 291], the IC50 in experiment [1] turned out to be 1 nM; in experiment [2] (Homo sapiens, MIA PaCa-2, 2 h), 9 nM; with Miapaca2 3D spheroids (setting [3]) it was 0.3 nM.

With `CNC(=O)C#Cc1ccc2c(c1)[C@@H](N)C1(CCN(c3nc(N)c(Sc4ccnc(N)c4Cl)nc3F)CC1)C2` [Compound 239, (S)-3-(1-amino-1′-(6-amino-5-((2-amino-3-chloropyridin-4-yl)thio)-3-fluoropyrazin-2-yl)-1,3-dihydrospiro[indene-2,4′-piperidin]-6-yl)-N-methylpropiolamide], the IC50 in experiment [1] was 3 nM; in experiment [2] (Homo sapiens, MIA PaCa-2, 2 h), 15 nM; in the experiment with Miapaca2 3D spheroids (setting [3]), 2.1 nM.

On to `Cc1nc(Sc2ccnc(N)c2Cl)c(N)nc1N1CCC2(CC1)Cc1ccc(C#CC(=O)N(C)C)cc1[C@H]2N` [Compound 203], for which the IC50 in experiment [1] amounted to 2 nM; in experiment [2] (Homo sapiens, MIA PaCa-2, 2 h), 7 nM; in the experiment with Miapaca2 3D spheroids (setting [3]), 16 nM.

As to `COCC#Cc1cc(F)c2c(c1)[C@@H](N)C1(CCN(c3ncc(Sc4ccnc(C)n4)c4nccn34)CC1)C2` [Compound 175], the IC50 was found to be 14 nM in experiment [1]; 122 nM in experiment [2] (Homo sapiens, MIA PaCa-2, 2 h); 100 nM in the experiment with Miapaca2 3D spheroids (setting [3]).

With `CCNC(=O)C#Cc1ccc2c(c1)[C@@H](N)C1(CCN(c3ncc(Sc4ccnc(N)n4)nc3C)CC1)C2` [Compound 261], the IC50 in experiment [1] was 0.9 nM; in experiment [2] (Homo sapiens, MIA PaCa-2, 2 h) it was 7 nM; in the experiment with Miapaca2 3D spheroids (setting [3]), 2 nM.

`CNC(=O)C#Cc1ccc2c(c1)[C@@H](N)C1(CCN(c3nc(N)c(Sc4ccnc(N)c4Cl)nc3Br)CC1)C2` [Compound 240, (S)-3-(1-amino-1′-(6-amino-5-((2-amino-3-chloropyridin-4-yl)thio)-3-bromopyrazin-2-yl)-1,3-dihydrospiro[indene-2,4′-piperidin]-6-yl)-N-methylpropiolamide]: the IC50 in experiment [1] is 1.5 nM; in experiment [2] (Homo sapiens, MIA PaCa-2, 2 h) it was 18 nM; in the experiment with Miapaca2 3D spheroids (setting [3]) it was 5 nM.

Turning to `Cc1nc(Sc2ccnc(N)c2Cl)c(N)nc1N1CCC2(CC1)Cc1ccc(C#CC(N)=O)cc1[C@H]2N` [Compound 276], the IC50 in experiment [1] worked out at 2 nM; in experiment [2] (Homo sapiens, MIA PaCa-2, 2 h), 4 nM; with Miapaca2 3D spheroids (setting [3]), 3 nM.

For `C#Cc1ccc2c(c1)[C@@H](N)C1(CCN(c3cc(=O)n(-c4ccc(F)c(OC)c4Cl)c(C)n3)CC1)C2` (atropisomer, axis not shown) [Compound 161], the IC50 is 1 nM in experiment [1], 13 nM in experiment [2] (2 hours) and 8 nM in the experiment with Miapaca2 3D spheroids.

As to `C#Cc1ccc2c(c1)[C@@H](N)C1(CCN(c3cc(=O)n(-c4ccc(C#N)c(Cl)c4Cl)c(C)n3)CC1)C2` (atropisomer, axis not shown) [Compound 193], the IC50 was determined as 1 nM in experiment [1], 24 nM in experiment [2] (2 hours) and 90 nM with Miapaca2 3D spheroids.

Turning to `Cc1nc(N2CCC3(CC2)Cc2ccc(C#CC(N)=O)cc2[C@H]3N)cnc1Sc1ccnc(N)c1Cl` [Compound 277], the IC50 turned out to be 1 nM in experiment [1]; 11 nM in experiment [2] (Homo sapiens, MIA PaCa-2, 2 h); 5 nM in the experiment with Miapaca2 3D spheroids (setting [3]).

For `C#Cc1ccc2c(c1)[C@@H](N)C1(CCN(c3ncc(Sc4ccnc(N)c4Cl)n4ncnc34)CC1)C2` [Compound 179], the half-maximal inhibitory concentration (IC50) in experiment [1] was found to be 4 nM; in experiment [2] (Homo sapiens, MIA PaCa-2, 2 h) it was 112 nM; in the experiment on Miapaca2 3D spheroids (setting [3]), 65 nM.

As to `Nc1nc(N2CCC3(CC2)Cc2ccc(C#CC(=O)NC4CC4)cc2[C@H]3N)c(Cl)nc1Sc1ccnc(N)c1Cl` [Compound 230], the IC50 in experiment [1] was determined as 10 nM; in experiment [2] (Homo sapiens, MIA PaCa-2, 2 h), 31 nM; in the experiment with Miapaca2 3D spheroids (setting [3]) it was 7.4 nM.

For the molecule `NC(=O)NCC#Cc1ccc2c(c1)[C@@H](N)C1(CCN(c3cnc(Sc4ccnc(N)c4Cl)c(N)n3)CC1)C2` [Compound 159, (S)-1-(3-(1-amino-1′-(6-amino-5-((2-amino-3-chloropyridin-4-yl)thio)pyrazin-2-yl)-1,3-dihydrospiro[indene-2,4′-piperidin]-6-yl)prop-2-yn-1-yl)urea], the IC50 in experiment [1] stood at 1 nM; in experiment [2] (Homo sapiens, MIA PaCa-2, 2 h), 5 nM; in the experiment with Miapaca2 3D spheroids (setting [3]), 6 nM.

Turning to `Cc1nc(Sc2ccnc(N)c2Cl)c(N)nc1N1CCC2(CC1)Cc1ccc(C#CC(=O)O)cc1[C@H]2N` [Compound 283], the half-inhibitory concentration (IC50) was 1 nM in experiment [1]; 737 nM in experiment [2] (Homo sapiens, MIA PaCa-2, 2 h); 243 nM with Miapaca2 3D spheroids (setting [3]).

Regarding `NC(=O)C#Cc1ccc2c(c1)[C@@H](N)C1(CCN(c3cnc(Sc4ccnc(N)c4F)c(N)n3)CC1)C2` [Compound 275], the IC50 in experiment [1] is 0.5 nM; in experiment [2] (Homo sapiens, MIA PaCa-2, 2 h), 2 nM; in the experiment with Miapaca2 3D spheroids (setting [3]) it was 2 nM.

As to `COCCNC(=O)C#Cc1ccc2c(c1)[C@@H](N)C1(CCN(c3cnc(Sc4ccnc(N)c4F)cn3)CC1)C2` [Compound 298], the IC50 in experiment [1] was determined as 0.3 nM; in experiment [2] (Homo sapiens, MIA PaCa-2, 2 h), 1 nM; in the experiment on Miapaca2 3D spheroids (setting [3]) it was 0.3 nM.

`CNC(=O)C#Cc1ccc2c(c1)[C@@H](N)C1(CCN(c3ncc(Sc4ccnc(N)c4Cl)nc3C)CC1)C2` [Compound 232]: the concentration for half-maximal inhibition (IC50) in experiment [1] was found to be 2 nM; in experiment [2] (Homo sapiens, MIA PaCa-2, 2 h) it was 8 nM; with Miapaca2 3D spheroids (setting [3]) it was 0.9 nM.

On to `CNC(=O)C#Cc1ccc2c(c1)[C@@H](N)C1(CCN(c3nc(C)c(Sc4ccnc(N)c4Cl)nc3CO)CC1)C2` [Compound 199], for which the IC50 in experiment [1] came out at 1 nM; in experiment [2] (Homo sapiens, MIA PaCa-2, 2 h), 5 nM; in the experiment on Miapaca2 3D spheroids (setting [3]), 12 nM.

As to `Cc1c(N2CCC3(CC2)Cc2ccc(C#CC(=O)N(C)C)cc2[C@H]3N)nc(C)n(-c2cccc(Cl)c2Cl)c1=O` [Compound 195], the IC50 in experiment [1] is 1 nM; in experiment [2] (Homo sapiens, MIA PaCa-2, 2 h), 11 nM; with Miapaca2 3D spheroids (setting [3]), 30 nM.

As to `COCC#Cc1ccc2c(c1)[C@@H](N)C1(CCN(c3cc(=O)n(-c4ccc(C#N)c(OC)c4F)c(C)n3)CC1)C2` [Compound 197], the IC50 in experiment [1] is 3 nM; in experiment [2] (Homo sapiens, MIA PaCa-2, 2 h) it was 29 nM; in the experiment on Miapaca2 3D spheroids (setting [3]), 38 nM.

Consider `COCCNC(=O)C#Cc1ccc2c(c1)[C@@H](N)C1(CCN(c3cnc(Sc4ccnc(N)c4Cl)cn3)CC1)C2` [Compound 297], for which the IC50 was 0.3 nM in experiment [1]; 1 nM in experiment [2] (Homo sapiens, MIA PaCa-2, 2 h); 0.3 nM in the experiment with Miapaca2 3D spheroids (setting [3]).

Consider `CNC(=O)C#Cc1ccc2c(c1)[C@@H](N)C1(CCN(c3cnc(N4CCCc5ncccc54)cn3)CC1)C2` [Compound 251], for which the 50% inhibitory concentration (IC50) was 1 nM in experiment [1]; 24 nM in experiment [2] (Homo sapiens, MIA PaCa-2, 2 h); 29 nM with Miapaca2 3D spheroids (setting [3]).

On to `CNC(=O)C#Cc1ccc2c(c1)[C@@H](N)C1(CCN(c3cc(=O)n(-c4cccc(OC)c4Cl)c(C)n3)CC1)C2` (atropisomer, axis not shown) [Compound 182], for which the IC50 in experiment [1] is 1 nM; in experiment [2] (2 hours), 23 nM; with Miapaca2 3D spheroids (setting [3]) it was 18 nM.
